ChEMBL document CHEMBL1201862, “PubChem BioAssay data set” (2004)
Active and inactive are the calls of the source.

Assays:
[1] = molecular target: T1, Estrogen receptor (Homo sapiens, UniProt P03372);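 further: potency for inhibiting coactivator peptide recruitment to the receptor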
T1 sequence (P03372 whole entry): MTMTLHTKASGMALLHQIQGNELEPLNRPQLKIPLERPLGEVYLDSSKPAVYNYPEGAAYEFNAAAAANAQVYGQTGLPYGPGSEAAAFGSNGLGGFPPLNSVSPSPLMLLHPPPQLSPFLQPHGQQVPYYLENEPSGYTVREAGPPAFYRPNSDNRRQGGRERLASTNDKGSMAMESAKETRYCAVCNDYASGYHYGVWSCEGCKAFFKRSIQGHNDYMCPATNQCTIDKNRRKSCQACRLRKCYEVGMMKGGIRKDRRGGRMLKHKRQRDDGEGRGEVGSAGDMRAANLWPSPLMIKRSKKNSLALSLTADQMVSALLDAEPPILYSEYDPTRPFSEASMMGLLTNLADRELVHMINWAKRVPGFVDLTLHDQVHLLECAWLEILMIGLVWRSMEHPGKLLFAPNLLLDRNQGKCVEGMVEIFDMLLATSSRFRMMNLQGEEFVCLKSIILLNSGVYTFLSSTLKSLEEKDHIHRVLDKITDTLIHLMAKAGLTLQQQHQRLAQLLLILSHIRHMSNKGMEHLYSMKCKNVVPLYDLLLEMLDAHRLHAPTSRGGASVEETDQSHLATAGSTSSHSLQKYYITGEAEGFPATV

[2] = molecular target: Dual specificity tyrosine-phosphorylation-regulated kinase 1A (Rattus norvegicus, UniProt Q63470); format: biochemical, Homo sapiens
[3] = system: HEK293; experiment: cells; format: functional, cell-based; conditions: Homo sapiens
[4] = system: HEK293; experiment: NOD2 signaling inhibitors in MDP-stimulated cells, cell-based, uHTS, luminescence (AID 2001); format: functional; conditions: Homo sapiens
[5] = system: HEK293; experiment: NOD1 signaling inhibitors, primary screen, cell-based, luminescence, uHTS (AID 1578); format: functional; conditions: Homo sapiens
[6] = molecular target: Nucleotide-binding oligomerization domain-containing protein 2 (Homo sapiens, UniProt Q9HC29); experiment: NOD2 signaling inhibitors, cell-based, luminescence, uHTS, HEK293 (AID 1566); format: functional
Sequence of Nucleotide-binding oligomerization domain-containing protein 2 (Q9HC29 whole entry, the tested form may be a part): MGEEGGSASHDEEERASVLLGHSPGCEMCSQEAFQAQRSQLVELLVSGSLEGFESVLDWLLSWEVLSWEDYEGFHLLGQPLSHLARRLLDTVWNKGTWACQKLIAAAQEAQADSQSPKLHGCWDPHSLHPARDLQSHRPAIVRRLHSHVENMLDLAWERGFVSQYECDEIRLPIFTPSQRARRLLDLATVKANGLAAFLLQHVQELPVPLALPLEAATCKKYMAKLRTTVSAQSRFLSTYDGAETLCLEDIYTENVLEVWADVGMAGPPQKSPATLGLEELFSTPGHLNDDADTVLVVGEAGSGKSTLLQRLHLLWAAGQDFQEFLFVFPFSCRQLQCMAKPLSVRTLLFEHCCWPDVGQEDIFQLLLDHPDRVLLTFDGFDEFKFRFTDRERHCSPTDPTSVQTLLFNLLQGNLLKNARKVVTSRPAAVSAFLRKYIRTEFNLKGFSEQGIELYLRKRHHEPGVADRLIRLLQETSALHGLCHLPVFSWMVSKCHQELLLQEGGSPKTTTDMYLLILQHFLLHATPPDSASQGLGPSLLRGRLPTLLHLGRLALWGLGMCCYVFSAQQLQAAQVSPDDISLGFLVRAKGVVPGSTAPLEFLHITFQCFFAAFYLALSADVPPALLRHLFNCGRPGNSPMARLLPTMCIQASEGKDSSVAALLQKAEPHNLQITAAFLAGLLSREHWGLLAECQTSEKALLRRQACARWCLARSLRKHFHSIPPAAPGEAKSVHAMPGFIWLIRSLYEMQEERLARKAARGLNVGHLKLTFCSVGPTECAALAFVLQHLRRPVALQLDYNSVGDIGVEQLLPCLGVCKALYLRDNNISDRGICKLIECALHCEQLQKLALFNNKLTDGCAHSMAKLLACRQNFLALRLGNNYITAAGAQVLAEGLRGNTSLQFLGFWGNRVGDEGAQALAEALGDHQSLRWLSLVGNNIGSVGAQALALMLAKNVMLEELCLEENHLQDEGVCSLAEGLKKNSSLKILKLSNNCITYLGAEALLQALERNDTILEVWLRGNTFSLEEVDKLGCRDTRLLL

[7] = system: HEK293; experiment: cells; format: functional, cell-based; conditions: Homo sapiens; remark: listed apart in the source
[8] = system: HEK293; experiment: cells; conditions: Homo sapiens
[9] = molecular target: T2, Nucleotide-binding oligomerization domain-containing protein 1 (Homo sapiens, UniProt Q9Y239); experiment: NOD1 signaling inhibitors, SAR follow-up, revised (AID 2333); format: functional
T2 sequence (Q9Y239 whole entry): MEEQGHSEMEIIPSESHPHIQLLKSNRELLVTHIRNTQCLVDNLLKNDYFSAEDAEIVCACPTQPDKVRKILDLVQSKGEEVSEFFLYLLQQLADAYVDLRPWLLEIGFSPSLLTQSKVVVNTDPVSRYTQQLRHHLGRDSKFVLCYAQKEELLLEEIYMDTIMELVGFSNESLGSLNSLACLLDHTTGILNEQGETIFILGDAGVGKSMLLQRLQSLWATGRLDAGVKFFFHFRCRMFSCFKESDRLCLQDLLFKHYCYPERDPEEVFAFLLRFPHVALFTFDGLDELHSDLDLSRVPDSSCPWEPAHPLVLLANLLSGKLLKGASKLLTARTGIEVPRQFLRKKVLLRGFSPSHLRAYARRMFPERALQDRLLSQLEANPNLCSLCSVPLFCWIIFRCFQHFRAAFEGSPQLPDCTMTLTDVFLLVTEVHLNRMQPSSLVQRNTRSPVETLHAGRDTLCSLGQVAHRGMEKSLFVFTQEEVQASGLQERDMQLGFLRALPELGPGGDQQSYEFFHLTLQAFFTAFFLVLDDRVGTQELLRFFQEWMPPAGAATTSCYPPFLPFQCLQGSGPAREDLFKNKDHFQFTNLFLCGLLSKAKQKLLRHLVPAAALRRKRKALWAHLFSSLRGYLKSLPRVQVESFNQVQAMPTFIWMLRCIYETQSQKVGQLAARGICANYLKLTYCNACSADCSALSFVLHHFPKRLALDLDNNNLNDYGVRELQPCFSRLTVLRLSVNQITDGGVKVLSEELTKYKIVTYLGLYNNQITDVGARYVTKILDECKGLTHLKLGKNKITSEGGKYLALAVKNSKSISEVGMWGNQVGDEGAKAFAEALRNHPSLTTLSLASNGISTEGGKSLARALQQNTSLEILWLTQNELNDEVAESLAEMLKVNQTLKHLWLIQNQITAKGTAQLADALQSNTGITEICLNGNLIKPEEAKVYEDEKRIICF

[10] = molecular target: Tumor necrosis factor (Homo sapiens, UniProt P01375); experiment: TNFa-triggered NF-kB activation inhibitors, SAR follow-up, cell-based, revised (AID 2337); format: functional
Sequence of Tumor necrosis factor (P01375 whole entry): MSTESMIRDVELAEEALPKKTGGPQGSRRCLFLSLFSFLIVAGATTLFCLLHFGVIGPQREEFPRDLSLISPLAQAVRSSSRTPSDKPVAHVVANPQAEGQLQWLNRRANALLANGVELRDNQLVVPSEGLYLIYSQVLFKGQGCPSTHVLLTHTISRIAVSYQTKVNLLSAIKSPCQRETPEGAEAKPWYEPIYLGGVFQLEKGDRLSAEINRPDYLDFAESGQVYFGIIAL

[11] = system: HEK293; experiment: cells; format: functional, cell-based; conditions: Homo sapiens; remark: listed apart in the source
[12] = cells; format: functional, cell-based
[13] = cells; format: functional, cell-based; remark: listed apart in the source
[14] = M. tuberculosis H37Rv growth inhibitors, H37Rv strain (AID 1626); format: functional
[15] = molecular target: T3, Adenosylmethionine-8-amino-7-oxononanoate aminotransferase (Mycobacterium tuberculosis, UniProt P9WQ81); experiment: Mycobacterium tuberculosis BioA enzyme inhibitor Measured in Biochemical System Using Plate Reader - 2163-02_Inhibitor_Dose_CherryPick_Activity.; format: functional, Mycobacterium tuberculosis UT205
T3 sequence (P9WQ81 whole entry): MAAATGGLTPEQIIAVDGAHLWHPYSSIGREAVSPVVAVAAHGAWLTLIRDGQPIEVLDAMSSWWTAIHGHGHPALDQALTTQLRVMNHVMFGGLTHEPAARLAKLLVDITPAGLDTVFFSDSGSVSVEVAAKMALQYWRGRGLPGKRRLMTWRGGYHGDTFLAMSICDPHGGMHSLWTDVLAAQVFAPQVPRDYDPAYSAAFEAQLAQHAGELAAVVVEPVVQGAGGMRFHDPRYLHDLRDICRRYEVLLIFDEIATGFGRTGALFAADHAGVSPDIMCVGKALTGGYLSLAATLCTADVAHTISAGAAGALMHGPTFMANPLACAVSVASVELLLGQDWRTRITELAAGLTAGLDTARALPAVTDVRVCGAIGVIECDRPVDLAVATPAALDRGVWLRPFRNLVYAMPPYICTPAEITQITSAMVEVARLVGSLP

[16] = molecular target: Paired box protein Pax-8 (Homo sapiens, UniProt Q06710); experiment: inhibitors of PAX8-driven TPO luciferase reporter, dose response, RMG-I cells, cherry-pick (AID 687027); format: functional, cell-based;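 further: luciferase reporter driven by Pax8 target thyroperoxidase promoter measured by SteadyGlo luminescence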
Sequence of Paired box protein Pax-8 (Q06710 whole entry): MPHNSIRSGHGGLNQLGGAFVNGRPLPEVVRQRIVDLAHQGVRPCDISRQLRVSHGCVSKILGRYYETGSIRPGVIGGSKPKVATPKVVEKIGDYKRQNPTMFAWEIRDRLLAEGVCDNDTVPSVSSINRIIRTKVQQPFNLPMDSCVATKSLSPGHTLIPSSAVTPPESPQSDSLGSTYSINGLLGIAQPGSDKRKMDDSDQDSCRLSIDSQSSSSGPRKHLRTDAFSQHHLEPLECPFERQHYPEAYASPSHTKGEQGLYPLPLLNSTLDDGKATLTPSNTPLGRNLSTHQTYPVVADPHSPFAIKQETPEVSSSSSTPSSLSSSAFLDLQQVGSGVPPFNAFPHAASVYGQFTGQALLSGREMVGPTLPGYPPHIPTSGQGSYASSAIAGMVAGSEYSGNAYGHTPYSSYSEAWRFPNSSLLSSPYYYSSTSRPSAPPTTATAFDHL

[17] = NIH:OVCAR-3 ovarian cancer cell cytotoxicity, dose response, PAX8 inhibitor project, plate reader, dry powder samples (AID 743044); format: functional, cell-based
[18] = molecular target: T4, Heat shock factor protein 1 (Mus musculus, UniProt P38532); experiment: inhibition of MG132-induced HSE-luciferase signal, confirmation, cell-based, NIH3T3, luminescence, dose retest (AID 2382); format: functional;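 further: NIH3T3 fibroblasts with HSF1-driven luciferase reporter stressed by proteasome inhibitor MG132; luminescence from HSF1-driven luciferase expression after 8 hours of MG132 stress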
T4 sequence (P38532 whole entry): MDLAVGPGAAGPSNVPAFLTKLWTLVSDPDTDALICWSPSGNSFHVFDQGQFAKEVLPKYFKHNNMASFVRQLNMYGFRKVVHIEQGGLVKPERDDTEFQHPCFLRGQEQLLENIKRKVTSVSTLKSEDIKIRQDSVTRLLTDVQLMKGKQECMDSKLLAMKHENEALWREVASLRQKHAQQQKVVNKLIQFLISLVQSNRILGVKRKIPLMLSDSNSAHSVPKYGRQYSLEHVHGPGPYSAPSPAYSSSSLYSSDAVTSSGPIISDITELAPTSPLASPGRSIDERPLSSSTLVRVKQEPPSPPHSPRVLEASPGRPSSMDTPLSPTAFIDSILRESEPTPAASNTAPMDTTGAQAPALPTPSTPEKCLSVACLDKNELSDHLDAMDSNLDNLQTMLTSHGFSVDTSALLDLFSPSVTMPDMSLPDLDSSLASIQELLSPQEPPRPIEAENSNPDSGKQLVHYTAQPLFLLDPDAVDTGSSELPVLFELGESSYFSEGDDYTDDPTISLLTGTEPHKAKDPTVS

[19] = HEp-2 cell cytotoxicity, dose response, cytotoxicity control for RSV inhibitor project, HTS (AID 2410); format: functional; conditions: human respiratory syncytial virus
[20] = microbe, parasite or virus in culture; format: functional; conditions: Mycobacterium tuberculosis
[21] = molecular target: T5, Rac GTPase-activating protein 1 (Homo sapiens, UniProt Q9H0H5); experiment: MgcRacGAP GTPase-activating activity inhibitors, confirmation, biochemical, ADP Hunter fluorescence, primary and confirmatory (AID 624330); format: functional
T5 sequence (Q9H0H5 whole entry): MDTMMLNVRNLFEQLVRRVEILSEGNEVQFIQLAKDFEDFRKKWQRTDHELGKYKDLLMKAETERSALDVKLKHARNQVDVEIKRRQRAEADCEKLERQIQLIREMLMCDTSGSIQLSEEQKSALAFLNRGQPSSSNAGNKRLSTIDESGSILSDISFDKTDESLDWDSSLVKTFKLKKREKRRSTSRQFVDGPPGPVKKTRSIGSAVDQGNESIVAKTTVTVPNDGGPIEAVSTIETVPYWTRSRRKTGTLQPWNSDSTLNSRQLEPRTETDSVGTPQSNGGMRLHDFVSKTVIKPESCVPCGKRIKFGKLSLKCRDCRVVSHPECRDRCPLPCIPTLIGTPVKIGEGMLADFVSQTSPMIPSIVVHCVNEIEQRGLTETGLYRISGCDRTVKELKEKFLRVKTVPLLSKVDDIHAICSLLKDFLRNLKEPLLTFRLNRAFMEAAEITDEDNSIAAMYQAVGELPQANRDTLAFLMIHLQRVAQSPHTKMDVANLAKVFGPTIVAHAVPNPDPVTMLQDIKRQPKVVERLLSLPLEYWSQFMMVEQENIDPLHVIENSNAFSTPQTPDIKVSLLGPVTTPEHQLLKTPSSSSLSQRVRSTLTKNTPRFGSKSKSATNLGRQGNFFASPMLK

SMILES: O=C(COC(=O)CCC(=O)c1cccs1)NCc1ccco1
- IC50 [1]: 11.9 µM (active)

SMILES: Cc1cc(SCC(=O)NC(=O)NCc2ccco2)nc2c(C)cccc12
- IC50 [1]: 32 µM (not active)

SMILES: Cc1ccc(CNC(=O)c2cc3c(=O)n(C)c4ccccc4c3n2C)o1
- AC50 [2]: > 120 µM (inactive)

SMILES: COc1cccc(C(=O)Nc2sc3c(c2C(=O)O)CCCC3)c1
- IC50 [3]: > 20 µM (inactive)
- IC50 [4]: > 20 µM (inactive)
- EC50 [5]: > 20 µM (inactive)
- EC50 [6]: > 20 µM (inactive)
- IC50 [7]: > 20 µM (inactive)
- IC50 [8]: > 20 µM (inactive)
- IC50 [9]: 1.76 µM (active)
- IC50 [10]: > 20 µM (inactive)
- IC50 [11]: > 20 µM (inactive)

SMILES: O=C(CCCOc1ccccc1)NCCc1ccccc1
- EC50 [12]: > 29.9 µM (inactive)
- IC50 [13]: > 29.9 µM (inactive)

SMILES: O=C(Nc1nc(-c2ccc(-c3ccccc3)cc2)cs1)c1cnccn1
- IC50 [14]: > 100 µM (active)

SMILES: CC(=O)N1[C@@H]2c3ccc(-c4cccnc4)c(=O)n3C[C@@H]2[C@@H](CO)[C@@H]1C(=O)NCc1ccccc1Cl
- AC50 [15]: 1.09 µM (active)

SMILES: C[C@@H]1CN([C@H](C)CO)C(=O)c2cc(NS(=O)(=O)c3ccc(Cl)cc3)ccc2O[C@@H](C)CCCCO[C@H]1CN(C)Cc1ccc(Cl)c(Cl)c1
- AC50 [16]: 4.84 µM (active)
- AC50 [17]: 32.8 µM (active)

SMILES: CNC(=S)N/N=C/c1ccc(-c2cccc(C(=O)O)c2)o1
- AC50 [2]: 7.05 µM (active)
- EC50 [18]: > 195 µM (not active)

SMILES: CN1/C(=N\O)c2cccc3cccc1c23
- AC50 [2]: 1.28 µM (active)
- CC50 [19]: 24.9 µM (active)
- CC50 [20]: > 40 µM (active)
- IC50 [21]: 24.8 µM (active)

SMILES: COc1ccc(/N=C/c2ccc[nH]2)cc1
- IC50 [14]: > 100 µM (active)
